Holding throughout (assay type): cell-based
Assay [1] concerns Staphylococcus aureus (Gentamicin resistant) ATCC43300. Put plainly: MIC broth microdilution, S. aureus ATCC43300. The conditions noted are these: Staphylococcus aureus ATCC43300 (resistant to Methicillin, Oxacillin, Gentamicin and Azithromycin), CAMHB, 37° C., 18-20 hours, 90% growth inhibition. As to the method: (§1) Compound 7 was tested to evaluate its inhibitory effect on Staphylococcus aureus. An experiment was conducted to assess the minimum inhibitory concentration (MIC) of the compound of Formula (I).
(§2) 20.0 mg of test compound was weighed and dissolved in 0.5 mL of filtered DMSO (100%) to prepare a stock solution of 40 mg/mL concentration. Initial stock (Stock 1 and Stock 2) and working stock solution (10 concentrations) were prepared as mentioned in the table below. Final testing concentration in the micro-titer plates was starting from 1000 μg/mL in experiment plate.
(§3) The reference standards gentamicin, norfloxacin and levofloxacin were dissolved using sterile ultrapure water to prepare a stock solution of 2.0 mg/mL concentration. Working stock solution of 64 μg/mL was prepared in CAMHB by diluting 0.032 mL of 2.0 mg/mL stock solution in 0.968 mL of growth medium. The testing concentration in the micro-titer plates is 32 μg/mL.
(§4) Tester strains were sub-cultured on Soyabean Casein digest Agar (SCDA) and incubated at 37° C. for 18-20 hours in aerobic condition. After incubation, the isolated colonies were suspended in sterile saline to prepare the bacterial suspension. The bacterial suspension was adjusted to ˜1×10^8 CFU/mL.
(§5) ? titer plates (Flat bottom) were prepared as per the CLSI recommendations. The test compound and reference compounds dilution were performed in the micro titer plates. Two hundred microliters of respective growth medium were added to the wells of a 96-wellflat bottom plate well A1 to E1 for Broth control. One hundred microliters of respective growth medium were added to all the wells B3 to B11, C3 to C11, D3 to D11, E3 to E11 except B2 to E2. One hundred microliters of prepared test compound 7 working stock solution (10 concentrations) were added from A2 to A11. Two hundred microliters of reference Standard were added to B2, C2 and D2. Two hundred microliters of DMSO were to E2 as negative control. One hundred microliter was transferred from B2, C2, D2 and E2 wells B3, C3, D3 and E3 wells respectively and serially diluted up to B11, C11, D11 and E11 wells. One hundred microliter after serial dilution was discarded from Bit, C11, D11 and E11 wells, wells A12 to F12 serve as culture control.
(§6) The adjusted bacterial suspension was further diluted in CAMHB (Section 6.5), 100 μl of diluted culture was added to micro titer plate where the final concentration was 5×10^5 CFU/mL. Plates were incubated at 37° C. for 18-20 hours at aerobic conditions.
(§7) After incubation, visual readings were recorded, and the optical density was measured at 600 nm in spectrophotometer. The concentration of compound at 90% growth was inhibited compared to growth control was considered as the MIC value.

Assay [2] relates to Escherichia coli ATCC9637. Put plainly: MIC broth microdilution, E. coli ATCC9637. The conditions noted are these: CAMHB, 37° C., 18-20 hours, 90% growth inhibition. On the procedure: [The source words this procedure for another organism and reports this organism under the same test.] as §1, §2, §3, §4, §5, §6, §7
For orientation: In broth dilution the organism is exposed to a series of concentrations in liquid medium.

Assay [3] has as its system Klebsiella pneumoniae ATCC 700603. Put plainly: MIC broth microdilution, K. pneumoniae ATCC 700603. Conditions: 37° C., 18-20 hours, 90% growth inhibition. As to the method:
[The source words this procedure for another organism and reports this organism under the same test.] as §1, §2, §3, §4, §5, §6, §7

Assay [4] has as its system Pseudomonas aeruginosa ATCC 9027. The assay can be described thus: MIC broth microdilution, P. aeruginosa ATCC 9027. The conditions noted are these: 37° C., 18-20 hours, 90% growth inhibition. On the procedure: [The source words this procedure for another organism and reports this organism under the same test.] as §1, §2, §3, §4, §5, §6, §7
Assay [5] relates to Staphylococcus aureus ATCC29213. The assay can be described thus: MIC broth microdilution, S. aureus ATCC29213. The conditions noted are these: Staphylococcus aureus ATCC29213 (sensitive strain), CAMHB, 37° C., 18-20 hours, 90% growth inhibition. On the procedure:
as §1, §2, §3, §4, §5, §6, §7

In assay [6] the test system is Staphylococcus aureus ATCC700699. Put plainly: MIC broth microdilution, S. aureus ATCC700699. Conditions: Staphylococcus aureus ATCC700699 (resistant to Methicillin and Oxacillin), CAMHB, 37° C., 18-20 hours, 90% growth inhibition. As to the method: as §1, §2, §3, §4, §5, §6, §7
Assay [7] concerns Staphylococcus aureus ATCC25923. The assay can be described thus: MIC broth microdilution, S. aureus ATCC25923. Conditions: Staphylococcus aureus ATCC25923 (sensitive strain), CAMHB, 37° C., 18-20 hours, 90% growth inhibition. As to the method:
as §1, §2, §3, §4, §5, §6, §7

The test system of assay [8] is Gram-positive Staphylococcus aureus strains, including MRSA and GR-MRSA. Put plainly: MIC, summary over S. aureus strains. The conditions noted are these: various Staphylococcus aureus strains, including MRSA and GR-MRSA (text summary of Table 1). On the procedure: as §1, §2, §3
Tester strains were sub-cultured on Soyabean Casein digest Agar (SCDA) and incubated at 37° C. for 18-20 hours in aerobic condition. After incubation, the isolated colonies were suspended in sterile saline to prepare the bacterial suspension. The bacterial suspension was adjusted to ˜1×10^8 CFU/mL. […]
After incubation, visual readings were recorded, and the optical density was measured at 600 nm in spectrophotometer. […]

The mark [9] stands for this setting: ATCC700603, CAMHB, read-out: MIC.

In brackets after ≈: the same amount, converted by molar mass. Like-named read-outs stand apart in the source and are kept apart here.

For 4 compounds, MIC results are on record in patent US20250144102A1, “1 H-PYRAZOLO[4,3-D]PYRIMIDINE DERIVATIVES AS STAPHYLOCOCCUS AUREUS INHIBITORS” (DR REDDY'S INSTITUTE OF LIFE SCIENCES, priority 2022, published 2025).

What is called MIC is the least concentration at which growth counts as inhibited. Regarding `CCn1cc(C(=O)O)c(=O)c2cc(F)c(N3CCNCC3)cc21` [Norfloxacin, norfloxacin], the minimum inhibitory concentration (MIC) is 1 µg/mL (≈ 3.13 µM) in assay [1] (read-out: MIC); not above 0.06 µg/mL in assay [2] (read-out: MIC); 4 µg/mL (≈ 12.5 µM) in assay [3] (setting [9]); 0.5 µg/mL (≈ 1.57 µM) in assay [4] (ATCC9027, CAMHB, read-out: MIC); 1 µg/mL (≈ 3.13 µM) in assay [5] (read-out: MIC); more than 32 µg/mL in assay [6] (read-out: MIC). In addition, the MIC in assay [7] (read-out: MIC) turned out to be 2 µg/mL (≈ 6.26 µM).

On to gentamicin, for which the minimal inhibitory concentration (MIC) in assay [1] is more than 32.00 µg/mL; in assay [2], 1.00 µg/mL; in assay [3] (CAMHB) it was 16.00 µg/mL; in assay [4] (CAMHB) it was 2.00 µg/mL; in assay [5], 0.50 µg/mL; in assay [6], more than 32.00 µg/mL. The compound also yielded a minimum inhibitory concentration (MIC) in assay [7] of 0.25 µg/mL.

For `CCCc1nn(C)c2c(-c3c[nH]c4ccc(Cl)cc34)nc(-c3ccc(Cl)cc3)nc12` [Compound 7, 7-(5-chloro-1H-indol-3-yl)-5-(4-chlorophenyl)-1-methyl-3-propyl-1H-pyrazolo[4,3-d]pyrimidine], the MIC in assay [1] (read-out: MIC) was 1 µg/mL (≈ 2.29 µM); in assay [2] (read-out: MIC), more than 1000 µg/mL; in assay [3] (setting [9]), more than 1000 µg/mL; in assay [4] (ATCC9027, CAMHB, read-out: MIC), more than 1000 µg/mL; in assay [5] (read-out: MIC) it was 1 µg/mL (≈ 2.29 µM); in assay [6] (read-out: MIC), 1 µg/mL (≈ 2.29 µM). Also, the MIC in assay [8] and in assay [7] (read-out: MIC) was 1 µg/mL (≈ 2.29 µM) in each case.

Turning to `C[C@H]1COc2c(N3CCN(C)CC3)c(F)cc3c(=O)c(C(=O)O)cn1c23` [Levofloxacin, levofloxacin], the MIC in assay [1] (read-out: MIC) is 0.13 µg/mL (≈ 0.36 µM); in assay [2] (read-out: MIC), not above 0.06 µg/mL; in assay [3] (setting [9]), 0.5 µg/mL (≈ 1.38 µM); in assay [4] (ATCC9027, CAMHB, read-out: MIC) it was 0.5 µg/mL (≈ 1.38 µM); in assay [5] (read-out: MIC) it was 0.13 µg/mL (≈ 0.36 µM); in assay [6] (read-out: MIC), 16 µg/mL (≈ 44.3 µM). In addition, the MIC in assay [7] (read-out: MIC) is 0.13 µg/mL (≈ 0.36 µM).
